The text below walks through data of patent EP4810497A1, “ISOQUINOLINE DERIVATIVE, SYNTHESIS METHOD THEREFOR, AND USE THEREOF” (Harbin Gloria Pharmaceuticals Co., Ltd., priority 2023, dated 2025).

Like-named read-outs stand apart in the source and are kept apart here.

Data set [1] has as its target T1, Pgk1 (Homo sapiens, UniProt P00558).
T1 sequence (P00558 1-417): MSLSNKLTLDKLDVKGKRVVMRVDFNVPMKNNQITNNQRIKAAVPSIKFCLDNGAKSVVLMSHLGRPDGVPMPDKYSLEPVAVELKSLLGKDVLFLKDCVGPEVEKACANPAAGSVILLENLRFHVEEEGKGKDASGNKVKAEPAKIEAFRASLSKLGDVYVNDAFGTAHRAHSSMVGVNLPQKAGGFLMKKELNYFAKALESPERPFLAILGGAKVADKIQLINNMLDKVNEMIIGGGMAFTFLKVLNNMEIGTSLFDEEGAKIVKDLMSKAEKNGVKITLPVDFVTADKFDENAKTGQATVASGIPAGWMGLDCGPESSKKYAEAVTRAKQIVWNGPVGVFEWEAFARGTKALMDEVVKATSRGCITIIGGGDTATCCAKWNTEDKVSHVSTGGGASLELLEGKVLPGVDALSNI
Put plainly: Affinity for Pgk1 protein (Biacore T200 chip). The conditions noted are these: for Rmax: amount of drug bound to the target protein when the affinity was detected. It is filed as binding. As to the method:
Purified Pgk1 protein (with a concentration of 1 mg/mL) was immobilized on a Biacore T200 chip. […] The obtained curves can calculate parameters such as affinity and Rmax.

The test system of data set [2] is db/db mice. Description: Hypoglycemic effect in diabetic model mice, intraperitoneal injection. It is filed as in vivo. The conditions noted are these: 4 hours later. As to the method:
Gene knockout db/db mice are a classic model of hyperglycemia and obesity. Under normal feeding conditions, mice aged 3 months or older developed hyperglycemia and obesity. After the mice were provided with only drinking water (fasted) for 6 hours, blood was collected from the tail of the mice to measure blood glucose values. Subsequently, different drugs, including saline (control), liraglutide at 0.6 mg/Kg, low-concentration T6 (T6 low, 0.1 mg/Kg), and high-concentration T6 (T6 high, 0.5 mg/Kg), were injected intraperitoneally. 4 hours later, blood was collected from the tail of the mice to measure the blood glucose levels. Each group consisted of 6 mice. Blood glucose levels before administration (Vbefore) and after administration (Vafter) were obtained for each mouse. The effect of the drug on blood glucose (%) was calculated as follows: (Vbefore−Vafter) × 100/Vbefore . [formula]

The test system of the next data set is α1 adrenergic receptor. The conditions noted are these: cited from earlier work.
Data set [3] concerns the target T1, Pgk1. The conditions noted are these: cited from earlier work.
The subject of data set [4] is MPTP-induced Parkinson's disease model mice. Put plainly: Rotarod motor ability in MPTP-induced Parkinson's disease model. The data set is classed as in vivo. The conditions noted are these: day 7 after MPTP injection. As to the method:
(§1) Male mice aged 3 months were used and fed normally. The acute MPTP modeling method (see Sonsalla PK, Heikkila RE. The influence of dose and dosing interval on MPTP-induced dopaminergic neurotoxicity in mice. Eur J Pharmacol 1986; 129(3): 339-45.) was employed. MPTP was injected intraperitoneally four times in total at a dose of 20 mg/kg body weight per injection, with a 2-hour interval between each injection. MPTP was dissolved in normal saline, and the control group received an equal dose of normal saline. T2 was dissolved in DMSO and diluted with normal saline to the desired concentration. Accordingly, equal doses of DMSO and normal saline were administered during the treatment. On the day of MPTP model establishment, mice were administered either T2 (treatment group) or DMSO (control group). Subsequently, mice in all groups were administered the corresponding drugs daily. Mouse behavior was tested using a rotarod (E103, UGO BASILE). First, mice were pre-trained for two consecutive days at a constant speed of 15 revolutions per minute (15 rpm) until they could stay on the rod for more than 60 seconds. […] The latency to fall from the rotarod was recorded, and the behavior was monitored by a camera. […] Therefore, whether dopaminergic neurons were damaged can be determined by Western blot assay using an anti-TH antibody.
On the technique in general: The rotarod test checks motor coordination on a turning rod.

The test system of data set [5] is Tyrosine hydroxylase (TH). Description: Striatal tyrosine hydroxylase Western blot in MPTP-induced Parkinson's disease model. The data set is classed as in vivo, mice. The conditions noted are these: 0.1 mg/Kg, striatal tissue. As to the method: as §1
In general terms: A western blot detects proteins with antibodies after separation by electrophoresis.

The next data set deals with SK-N-SH cells. Description: Cellular ATP levels (Promega ATP assay kit). It is filed as cell-based, human. The conditions noted are these: for cell growth: 50 µM; for optimal dose (cellular ATP levels): doses of 5 µM, 10 µM and 50 µM; for optimal dose (cellular ATP levels) / activity in increasing cellular ATP: 48 hours; for activity in increasing cellular ATP: SK-N-SH cells, 10 µM, 5% O2, untreated control defined as 1 (FIG. 1). On the procedure: Human Neuroblastoma Cell Line (SK-N-SH) is a human-derived neuroblastoma cell line. SK-N-SH cells were seeded in a 6-well plate at a density of 6×10^4 cells per well. The cells were cultured for 12 hours under 5% O2. Various drugs at a concentration of 10 µM were added. After 48 hours, the cells were harvested. Celluar ATP levels were measured using the Promega ATP assay kit. The experiment was repeated 6 times to 10 times. The experimental results were illustrated in FIG. 1. […] T1 to T11 were the experimental groups.
SK-N-SH cells were seeded in a 6-well plate at a density of 6×10^4 per well. Cells were cultured for 12 hours under 5% O2, and the drug was added. Cells were harvested after 48 hours. Cellular ATP levels were measured using a Promega ATP assay kit. The experiment was repeated 5 times to 7 times.

Data set [6] relates to stable Pgk1-knockdown SK-N-SH cell line. Description: Mitochondrial respiration (Seahorse) in Pgk1-knockdown cells. The data set is classed as cell-based, human. The conditions noted are these: 10 µM, shPgk1 knockdown cells.
Method: Cellular mitochondrial stress was detected using a Seahorse XFe analyzer (XFe-24, Seahorse Bioscience, Billerica, MA, UAS) to measure the oxygen consumption rate (OCR). SH-SKN cell lines were seeded in a 24-well plate compatible with the Seahorse XFe analyzer. After 24 hours, cells were treated with DMSO (0.01%) or various drugs (10 µM). Cellular mitochondrial stress was detected 12 hours after drug treatment. For the mitochondrial stress test, 97.2 mL of Seahorse basal medium (Seahorse Bioscience, Billerica, MA, UAS) was taken and heated in a water bath to 37°C, and 1 mL of a stock solution was added. The stock solution was prepared by mixing the following solutions: 1 mL of 200 mM L-glutamine solution (Sigma), 1 mL of 100 mM pyruvate solution (Sigma), and 800 µL of 2.5 M glucose solution, and the pH of the stock solution was adjusted to 7.4 with 1 M NaOH solution. Before detection, the probe plate was taken out, and 1 mL of XF Carlibrant solution (Seahorse Bioscience) was added to the probe plate. The plate was then incubated overnight in a CO2-free constant temperature incubator at 37°C. After drug treatment, the cells were removed and washed twice with preheated Seahorse basal medium at 37°C, ensuring that 500 µL of Seahorse basal medium remained in each well. The cells were incubated in a CO2-free constant temperature incubator at 37°C for 1 hour. […]
The target of data set [7] is T1, Pgk1. Put plainly: In vitro biochemical Pgk1 enzymatic activity (NADH production, absorbance 339 nm). Also on record: made in house; host or cells: E. coli BL21(DE3). The conditions noted are these: for optimal concentration for activating Pgk1: purified Pgk1-His 2 µg/mL, 10 minutes at room temperature. On the procedure:
Human Pgk1 cDNA was cloned into the pEASYTM-E2 vector (TransGen Biotech) containing a His tag. Protein expression was induced in BL21(DE3) chemocompetent cells (TransGen Biotech) with 0.5 mM IPTG. After lysing cells in extraction buffer (20 mM sodium phosphate, 500 mM NaCl, 5 mM imidazole, 5% glycerol, protease inhibitor cocktail, pH 7.9), the supernatant was purified with nickel beads (AdarBiotech). The His-tagged Pgk1 was eluted with the elution buffer (20 mM sodium phosphate, 500 mM NaCl, 80 mM imidazole, protease inhibitor cocktail, pH 7.9). The activity of Pgk1 can be measured by monitoring the rate of NADH production, as NADH accumulated as the reaction proceeded. Purified Pgkl-His protein (2 µg/mL) was added to the reaction buffer (20 mM Tris, 100 mM NaCl, 2 mM DTT, 0.1 mM MgSO4, 10 mM NaHPO4, pH 8.6), and the substrates (1.6 mM GAP, 1 mM β-NAD, 1 mM ADP, 20 ng/µL GAPDH) was added. […] After reaction for 10 minutes at room temperature, the absorbance wavelength at 339 nm was measured using a microplate reader (Molecular Devices, SpectraMax i3x), and this wavelength corresponds to NADH levels.

The test system of data set [8] is db/db mice. Description: Long-term hypoglycemic and weight-loss effects in diabetic model mice, drinking water. The data set is classed as in vivo. The conditions noted are these: 7 days, T6 1.5 mg/kg. As to the method:
After 7 days of treatment, changes in glycated hemoglobin (HbA1c) level, insulin level in mouse blood, and body weight, were measured.

The test system of the next data set is Wild-type mice (C57BL/6). Put plainly: Blood glucose in normal mice in vivo. The conditions noted are these: 0.1 mg/kg intraperitoneally, fasted 6 hours after administration.
Where [9] appears, read: Pgk1 immobilized on Biacore T200 chip, read-out: Affinity.

Method for Wild-type mice (C57BL/6): Wild-type mice (C57BL/6) aged 3 months to 4 months under normal feeding conditions were intraperitoneally injected with different drugs at 0.1 mg/kg. Mice injected with normal saline served as the control group. Mice were fasted for 6 hours after administration. Blood was collected from the tail of each mouse to measure blood glucose levels. Each group consisted of 9 mice.

As to `Nc1nc(N2CCN(C(=O)[C@@H]3CCCN3)CC2)cc2cc3c(cc12)OCO3` [Compound T9], the Kd on Pgk1 [1] (setting [9]) stood at 811 µM. In addition, at Pgk1 [1], the Rmax came out at 87 RU.

As for liraglutide, the “hypoglycemic effect (blood glucose)” value in the data set on db/db mice [2] (0.6 mg/Kg intraperitoneally) is “optimal hypoglycemic effect”.

Turning to `Nc1nc(N2CCN(C(=O)[C@H]3CCCO3)CC2)cc2cc3c(cc12)OCO3` [Compound T1], the Kd at Pgk1 [1] (setting [9]) is 496 µM.

On to `COc1cc2cc(N3CCN(C(=O)C4CCCO4)CC3)nc(N)c2cc1OC` (centres unmarked) [TZ-md], for which the “inhibition of the α1 adrenergic receptor” value with α1 adrenergic receptor is listed as “does not inhibit the α1 adrenergic receptor”. The “effect of activating Pgk1” value on Pgk1 [3] was “still retains the effect of activating Pgk1”.

Turning to `CC1Oc2cc3cc(N4CCN(C(=O)[C@H]5CCCO5)CC4)nc(N)c3cc2O1` (some centres unmarked) [Compound T3], on Pgk1 [1] (setting [9]), the Kd came to 684 µM. This compound also registered an Rmax on Pgk1 [1] of 93 RU.

As for `Nc1nc(N2CCN(C(=O)[C@H]3CCCO3)CC2)cc2cc3c(cc12)CCO3` [Compound T5], the Kd on Pgk1 [1] (setting [9]) came to 273 µM. The Rmax on Pgk1 [1] was determined as 86 RU.

On to `CC1(C)Oc2cc3cc(N4CCN(C(=O)[C@H]5CCCO5)CC4)nc(N)c3cc2O1` [Compound T4], for which the Kd at Pgk1 [1] (setting [9]) was 725 µM. Further, the Rmax on Pgk1 [1] amounted to 75 RU.

With `Nc1nc(N2CCN(C(=O)C3CCCC3)CC2)cc2cc3c(cc12)OCO3` [Compound T7], the Kd on Pgk1 [1] (setting [9]) came out at 878 µM.

Turning to `Nc1ncnc2c1ncn2[C@@H]1O[C@H](COP(=O)(O)OP(=O)(O)O)[C@@H](O)[C@H]1O` [ADP, reference compound], the Rmax at Pgk1 [1] is 35 RU. In addition, at Pgk1 [1] (unit inferred, read-out: KD value), the Kd was 337 µM.

For the compound `Nc1nc(N2CCN(C(=O)[C@@H]3CCCO3)CC2)cc2cc3c(cc12)OCO3` [Compound T2], the “motor ability (rotarod)” value in data set [4] (three doses 0.1 mg/Kg, 0.3 mg/Kg and 1 mg/Kg daily) was “exerted protective effects”. For the same compound, the “tyrosine hydroxylase protein levels / effect on dopaminergic neurons” value in [5] was “protective effect on dopaminergic neurons”. For the same compound, on Pgk1 [1] (setting [9]), the Kd was 449 µM.

`Nc1nc(N2CCN(C(=O)[C@H]3CCCN3)CC2)cc2cc3c(cc12)OCO3` [Compound T8]: the Kd on Pgk1 [1] (setting [9]) is 473 µM. Also, the Rmax on Pgk1 [1] worked out at 87 RU.

Turning to `Nc1nc(N2CCN(C(=O)[C@H]3CCCO3)CC2)cc2cc3c(cc12)OCC3` [Compound T6], in the data set with SK-N-SH cells, the cell growth result is reported as “tendency to inhibit cell growth” and the “optimal dose (cellular ATP levels)” value was determined as 50 µM. For the same compound, in [6], the basal respiratory rate entry is “absent” and the maximum respiratory rate result is on record as “absent”. In addition, the “inhibition of Pgk1 enzymatic activity” value against Pgk1 [7] (all different concentrations tested) is listed as “none of the concentrations can inhibit Pgk1”. Moreover, the “optimal concentration for activating Pgk1” value at Pgk1 [7] amounted to 0.1 µM. The body weight entry with db/db mice [8] is on record as “significant decrease in body weight”. For the same compound, the “glycated hemoglobin (HbA1c) level” value with db/db mice [8] (terazosin 0.3 mg/kg, metformin 350 mg/kg, versus control group) was “decrease”. The Kd at Pgk1 [1] (setting [9]) turned out to be 375 µM. In the data set with db/db mice [2] (high concentration 0.5 mg/kg intraperitoneally), the “hypoglycemic effect (blood glucose)” value is on record as “significant hypoglycemic effects”. Besides, in the data set with db/db mice [2] (low concentration 0.1 mg/kg intraperitoneally), the “hypoglycemic effect (blood glucose)” value is “significant hypoglycemic effects”.

As for `Nc1nc(N2CCN(C(=O)[C@H]3CCCO3)CC2)cc2cc3c(cc12)OCCO3` [Compound T10], the “activity in increasing cellular ATP” value in the data set with SK-N-SH cells is recorded as “no such activity of increasing cellular ATP”. Besides, the Kd at Pgk1 [1] (setting [9]) is over 1000 µM. Moreover, the Rmax entry at Pgk1 [1] is recorded as “None”.

Consider `Nc1nc(N2CCN(C(=O)c3ccco3)CC2)cc2cc3c(cc12)OCO3` [Compound T11], for which the “activity in increasing cellular ATP” value in the data set with SK-N-SH cells was “no such activity of increasing cellular ATP”. The Kd on Pgk1 [1] (setting [9]) is over 1000 µM. Moreover, the Rmax entry on Pgk1 [1] was “None”.

As to `COc1cc2nc(N3CCN(C(=O)C4CCCO4)CC3)nc(N)c2cc1OC` (centres unmarked) [Terazosin, terazosin, reference compound], the “motor ability (rotarod)” value in data set [4] (0.1 mg/Kg daily) was “improved the motor ability”. In addition, in the data set with SK-N-SH cells, the cell growth entry is on record as “tendency to inhibit cell growth” and the “optimal dose (cellular ATP levels)” value is 10 µM. For the same compound, the “inhibition of Pgk1 enzymatic activity” value against Pgk1 [7] (high concentration, 100 µM) is given as “can inhibit Pgk1 enzymatic activity”. For the same compound, the “optimal concentration for activating Pgk1” value on Pgk1 [7] amounted to 1 µM. The “hypoglycemic effect (blood glucose)” value with Wild-type mice (C57BL/6) is recorded as “did not exhibit a hypoglycemic effect”. Further, the “tyrosine hydroxylase protein levels / effect on dopaminergic neurons” value in [5] is reported as “protective effect on dopaminergic neurons”.
